As a reminder, the GI50 is the concentration that inhibits growth by half. The term TGI denotes the concentration giving total growth inhibition. The low end stands for greater sensitivity of the cells, the high end for lower sensitivity of the cells.

We go through twelve compounds from PubChem BioAssay (NCI).

Common to all, as to assay: DTP human tumour cell line panel, 48 h
Assay [1] concerns BT-549 breast.
In assay [2] the test system is HT29 colon.
Assay [3] concerns OVCAR-3 ovarian.
Assay [4] has as its system OVCAR-4 ovarian.
Assay [5] relates to RPMI-8226 leukemia.
Assay [6] concerns SF-268 CNS.
In assay [7] the test system is SK-MEL-28 melanoma.
The subject of assay [8] is SK-OV-3 ovarian.
Assay [9] has as its system UACC-62 melanoma.
In assay [10] the test system is A498 renal.

SMILES strings stand for the structures. Several values for one entry are separate records, joined by “and”; a condition that tells them apart may be missing. Equal values may be shown once.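 1) Cells in 96-well plates. 2) Compound, 48 h, 5 concentrations. 3) Linear interpolation between surrounding doses. 4) Unreached endpoint = highest concentration. GI50 marks 50% less growth. TGI denotes the concentration required for complete inhibition of growth.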

In the case of `O=C1c2ccn(CCCNC(CO)(CO)CO)c2C(=O)c2c1c(O)c1ccccc1c2O`, the GI50 in [1] is 43.9 µM; in assay [2], 15.4 µM; in assay [3], 6.71 µM; in assay [4], 29.2 µM; in assay [5] it was 22.3 µM; in assay [6], 24.2 µM. In addition, the results for the GI50 in [7], in assay [8] and in assay [9] were 51.3 µM, 30.8 µM and 24.6 µM, respectively. Further, the TGI in assay [1] was above 90.2 µM; in assay [2], above 46.3 µM; in [3], 21.6 µM; in [4] it was above 51.2 µM; in assay [5], above 69.7 µM; in assay [6] it was above 100 µM. The TGI in assay [7] is above 100 µM; in [8], 96.6 µM; in assay [9], above 61.3 µM.

As for `COc1ccc(/C=C\c2cc(OC)c(OC)c(OC)c2)cc1OC(=O)CC(N)C(=O)O` (stereo not drawn), the concentration for total growth inhibition (TGI) in assay [10] was 0.00888 µM; in [2], 39.6 µM; in [3], 0.00528 µM and 0.00484 µM and 0.0193 µM; in [4] it was above 100 µM; in [6], 0.365 µM; in assay [7] it was above 100 µM. Moreover, in assay [9], the TGI was above 100 µM. Also, the GI50 is 4.65 µM in [2]; 0.000506 µM in assay [3]; 9.51 µM in assay [4]; 0.000945 µM in assay [6]; 0.000728 µM in [7]; 0.000354 µM in assay [9].

`O=C1NC2(CCCCC2)C2CCCCC=C12` (stereo not drawn): the TGI in [10], in assay [2], in assay [3], in assay [4], in assay [5] and in assay [6] was above 100 µM in each case. In addition, the TGI in [7], in assay [8] and in [9] was above 100 µM each time.

On to `O=C(NCCCl)Nc1ccccc1`, for which the TGI in [10], in assay [2], in assay [3], in assay [4], in assay [5] and in assay [6] was above 100 µM throughout. In addition, the concentration for total growth inhibition (TGI) in assay [7], in assay [8] and in assay [9] was above 100 µM in each case.

With `C[C@]12CC(C=O)C(=O)C(O)=C1CC[C@@H]1C2CC[C@@]2(C)C1CC[C@]2(C)O` (stereo partly drawn), the TGI in [10] came to 45.9 µM; in [2], 23.5 µM; in [3], 64.7 µM; in assay [4], 34.8 µM; in assay [5], 48.8 µM; in [6], 66.1 µM. The concentration for total growth inhibition (TGI) in assay [7] worked out at 68.1 µM; in assay [8], 46.3 µM; in [9], 36.5 µM.

Regarding `COC(=O)c1ccc(C(=O)OC)c2nc3cc(Cl)ccc3nc12`, the total growth inhibition concentration (TGI) in assay [10], in assay [2], in [3], in assay [4], in assay [5] and in [6] was above 100 µM in each case. Besides, the TGI in [7], in assay [8] and in assay [9] was above 100 µM each time.

Turning to `CCC[CH2][Sn]([CH2]CCC)([O]C(=O)c1cc(F)ccc1F)[O]C(=O)c1cc(F)ccc1F`, the GI50 is 1.25 µM in [10]; 1.68 µM in [2]; 1.33 µM in assay [3]; 1.58 µM in assay [4]; 1.14 µM in assay [6]; 1.09 µM in assay [7]. The GI50 is 2.79 µM in assay [8] and 1.36 µM in [9]. In addition, the TGI in [10] amounted to 2.57 µM; in assay [2], 3.17 µM; in assay [3] it was 2.61 µM; in assay [4] it was 2.95 µM; in [6], 2.37 µM; in assay [7], 2.32 µM. In addition, the TGI in assay [8] turned out to be 5.64 µM; in assay [9], 2.65 µM.

On to `CCCS(=O)c1nc(COC(=O)NC)c(COC(=O)NC)n1C` (stereo not drawn), for which the TGI in [10], in [2], in assay [3], in assay [4], in [5] and in assay [6] was above 100 µM each time. Further, the total growth inhibition concentration (TGI) in assay [7], in assay [8] and in [9] was above 100 µM throughout.

Take `O=[N+]([O-])c1cccc(S(=O)(=O)N/N=C/c2cc(I)cc([N+](=O)[O-])c2O)c1`: the TGI was above 100 µM in assay [10]; 73.6 µM in [2]; 43.9 µM in assay [3]; above 100 µM in assay [4]; 86.2 µM in assay [5]; 79.3 µM in [6]. Besides, the values for the total growth inhibition concentration (TGI) in assay [7], in assay [8] and in assay [9] were 87.9 µM, 73.2 µM and 45.2 µM, respectively.

For `O=C1C(Cl)=C(Cl)C(=O)N1c1cccc(C(F)(F)F)c1`, the concentration for total growth inhibition (TGI) in assay [10], in [2], in [3], in assay [4], in assay [5] and in assay [6] was above 100 µM in each case. Moreover, the TGI in assay [7], in assay [8] and in [9] was above 100 µM in each case.

`COC(=O)C12C34C=CC5(CCC6(C=CC1(CC3)O6)C52C(=O)OC)O4` (stereo not drawn): the concentration for total growth inhibition (TGI) in [10], in assay [2], in [4], in assay [6], in [7] and in assay [8] was above 100 µM in each case.

Take `COc1ccc2c(CCCc3ccc(Cl)cc3Cl)c3[n+](cc2c1OC)CCc1cc2c(cc1-3)OCO2`: the GI50 in assay [10] was 1.76 µM; in assay [1] it was 0.365 µM; in [4], 0.337 µM; in assay [7], 0.492 µM; in assay [8] it was 0.873 µM; in assay [9], 0.284 µM. Also, the concentration for total growth inhibition (TGI) in assay [10] was 9 µM; in assay [1], 1.4 µM; in [4], 1.59 µM; in assay [7], 1.83 µM; in assay [8], 2.2 µM; in assay [9] it was 1.38 µM.
